Data on 1 compound can be found in US8563067B2, “Extended shelf life and bulk transport of perishable organic liquids with low pressure carbon dioxide” (Cornell Research Foundation, Inc., priority 2004, dated 2013).

A short description of this data set: pH of raw milk after CO2 pressure treatment (Example 1). It is filed as physicochemical. As to conditions: for pH after treatment (6.6 before treatment): 6.1° C., 4 days; for pH of milk samples: 10° C. As to the method:
The pH of the treated and control milk samples (as measured at atmospheric pressure) was 6.6 to 5.9 at CO2 pressures≦516 kPa and 5.7 when treated at pressures≧516 kPa and 20° C. The pH of the treated and control milk samples, when treated at 10° C., was 5.5 at CO2 pressures≦516 kPa and 5.8 when treated at pressures≧516 kPa.

As to `O=C=O` [CO2, carbon dioxide], the “pH after treatment (6.6 before treatment)” value (“pH after treatment” below) (68 kPa) was determined as 5.9, the “pH after treatment” value (344 kPa) is on record as 5.8 and the “pH after treatment” value (516 kPa) was 5.5. Besides, under “689 kPa, 4° C., end of days 4, 6, 8 and 9”, the “pH of treated milk (initial value 6.6)” value was 5.5. Besides, the “pH of milk samples” value reads like this: (CO2 pressures ≦516 kPa) 5.5; (pressures ≧516 kPa) 5.8. Besides, the “pH of milk samples (measured at atmospheric pressure)” value (pressures ≧516 kPa, 20° C.) turned out to be 5.7.
